This note sets out measurements from patent US10435399B2, “HDAC6 inhibitory heterocyclic compound” (TAKEDA PHARMACEUTICAL COMPANY LIMITED, priority 2017, dated 2019).

Each structure is given as a SMILES string.

The target in one assay is T1, HDAC6 enzyme (Homo sapiens, UniProt Q9UBN7).
T1 construct: transducing full length HDAC6 gene into Sf-9 insect cells; GST; purchased SignalChem; host or cells: Sf-9 insect cells
T1 sequence (Q9UBN7 1-1215): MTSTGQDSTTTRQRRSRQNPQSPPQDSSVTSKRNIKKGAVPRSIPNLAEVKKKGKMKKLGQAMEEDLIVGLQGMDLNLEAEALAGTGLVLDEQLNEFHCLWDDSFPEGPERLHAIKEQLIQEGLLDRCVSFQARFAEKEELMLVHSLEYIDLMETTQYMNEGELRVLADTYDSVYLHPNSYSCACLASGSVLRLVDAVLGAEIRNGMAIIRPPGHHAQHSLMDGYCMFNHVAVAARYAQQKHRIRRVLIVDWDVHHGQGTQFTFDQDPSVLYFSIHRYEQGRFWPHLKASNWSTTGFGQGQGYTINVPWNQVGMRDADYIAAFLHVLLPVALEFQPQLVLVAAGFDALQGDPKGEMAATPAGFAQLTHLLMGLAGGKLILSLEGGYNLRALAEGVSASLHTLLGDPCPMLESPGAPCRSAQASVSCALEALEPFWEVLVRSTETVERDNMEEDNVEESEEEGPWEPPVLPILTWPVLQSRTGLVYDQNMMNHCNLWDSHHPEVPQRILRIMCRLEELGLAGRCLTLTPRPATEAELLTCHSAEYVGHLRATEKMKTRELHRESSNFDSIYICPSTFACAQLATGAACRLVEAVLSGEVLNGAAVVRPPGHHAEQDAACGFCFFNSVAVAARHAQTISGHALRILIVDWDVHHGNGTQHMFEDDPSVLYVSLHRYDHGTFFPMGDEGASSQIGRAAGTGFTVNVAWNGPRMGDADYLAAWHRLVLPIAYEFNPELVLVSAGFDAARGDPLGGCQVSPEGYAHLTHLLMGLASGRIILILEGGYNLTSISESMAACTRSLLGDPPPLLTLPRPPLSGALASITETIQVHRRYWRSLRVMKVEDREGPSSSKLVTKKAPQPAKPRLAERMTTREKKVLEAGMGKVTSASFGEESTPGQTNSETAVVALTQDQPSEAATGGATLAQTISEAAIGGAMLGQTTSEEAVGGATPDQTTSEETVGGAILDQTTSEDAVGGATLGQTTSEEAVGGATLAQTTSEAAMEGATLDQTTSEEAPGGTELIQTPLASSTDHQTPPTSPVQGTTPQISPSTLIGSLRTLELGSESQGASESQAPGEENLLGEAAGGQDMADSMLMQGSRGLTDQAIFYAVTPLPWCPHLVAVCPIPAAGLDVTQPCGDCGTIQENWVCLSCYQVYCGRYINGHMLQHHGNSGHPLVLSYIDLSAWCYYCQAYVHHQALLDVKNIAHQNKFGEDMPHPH
Put plainly: HDAC6 enzyme inhibitory activity (HDAC-Glo I/II Assay kit). The class given is biochemical. As to conditions: 10 μM; wells without enzyme = 100% inhibition. The essentials: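 Luminescent HDAC-Glo I/II readout after 20 min room-temperature reaction with substrate-developer, following 60 min compound–enzyme preincubation. Enzyme: full-length HDAC6 from Sf-9 cells, GST-purified; buffer 24 mM Tris-HCl pH 7.5, 0.01% Tween-20, glutathione, salts. Wells lacking enzyme define 100% inhibition.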
Regarding `O=C1c2cc(-c3nnc(C(F)F)o3)ccc2CN1N1CCC(F)(F)CC1c1ccccc1` (stereo not drawn) [Example 554, 6-(5-(difluoromethyl)-1,3,4-oxadiazol-2-yl)-2-(4,4-difluoro-2-phenylpiperidin-1-yl)isoindolin-1-one (optical isomer)], the “HDAC6 inhibitory rate (%) (10 μM)” value turned out to be 100%.

On to `O=C1c2cc(-c3nnc(C(F)F)o3)ccc2CN1N1CCC(F)(F)CC1c1ccccc1` (stereo not drawn) [Example 555, 6-(5-(difluoromethyl)-1,3,4-oxadiazol-2-yl)-2-(4,4-difluoro-2-phenylpiperidin-1-yl)isoindolin-1-one (optical isomer)], for which the “HDAC6 inhibitory rate (%) (10 μM)” value is 100%.

As for `O=C1c2cc(-c3nnc(C(F)F)o3)ccc2CN1N1CCC(F)(F)CC1c1cccc(F)c1` (stereo not drawn) [Example 562, 2-(4,4-difluoro-2-(3-fluorophenyl)piperidin-1-yl)-6-(5-(difluoromethyl)-1,3,4-oxadiazol-2-yl)isoindolin-1-one (optical isomer)], the “HDAC6 inhibitory rate (%) (10 μM)” value is 99%.

Turning to `O=C1c2cc(-c3nnc(C(F)F)o3)ccc2CN1N1CCC(F)(F)CC1c1cccc(F)c1` (stereo not drawn) [Example 565, 2-(4,4-difluoro-2-(3-fluorophenyl)piperidin-1-yl)-6-(5-(difluoromethyl)-1,3,4-oxadiazol-2-yl)isoindolin-1-one (optical isomer)], the “HDAC6 inhibitory rate (%) (10 μM)” value was 100%.

Still in this assay, the particulars now being: 10 μM; wells without enzyme = 100% inhibition; read-out: HDAC6 inhibitory rate (%) (10 μM).
Regarding `Cn1cc(C2CCN(CC(F)(F)C(F)(F)F)CC2)c(N2Cc3ccc(-c4nnc(C(F)F)o4)cc3C2=O)n1` [Example 550, 6-(5-(difluoromethyl)-1,3,4-oxadiazol-2-yl)-2-(1-methyl-4-(1-(2,2,3,3,3-pentafluoropropyl)piperidin-4-yl)-1H-pyrazol-3-yl)isoindolin-1-one], the inhibition at 10 µM was determined as 99%.

`O=C1c2cc(-c3nnc(C(F)F)o3)ccc2CN1N1CCCC1c1cccc(F)c1` (centres unmarked) [Example 553, 6-(5-(difluoromethyl)-1,3,4-oxadiazol-2-yl)-2-(2-(3-fluorophenyl)pyrrolidin-1-yl)isoindolin-1-one]: the inhibition at 10 µM amounted to 100%.

As to `Cn1cc(C2CCC(NCC(F)(F)C(F)(F)F)CC2)c(N2Cc3ccc(-c4nnc(C(F)F)o4)cc3C2=O)n1` (centres unmarked) [Example 557, 6-(5-(difluoromethyl)-1,3,4-oxadiazol-2-yl)-2-(1-methyl-4-(4-((2,2,3,3,3-pentafluoropropyl)amino)cyclohexyl)-1H-pyrazol-3-yl)isoindolin-1-one], the inhibition at 10 µM was found to be 99%.

Take `O=C1c2cc(-c3nnc(C(F)F)o3)ccc2CN1N1CCC(F)(F)CC1c1cccc(F)c1` (centres unmarked) [Example 560, 2-(4,4-difluoro-2-(3-fluorophenyl)piperidin-1-yl)-6-(5-(difluoromethyl)-1,3,4-oxadiazol-2-yl)isoindolin-1-one]: the inhibition at 10 µM worked out at 100%.

Regarding `O=C1c2cc(-c3nnc(C(F)F)o3)ccc2CN1[C@@H]1CCOC[C@H]1n1nnc2cc(Cl)ccc21` [Example 563, 2-((3S,4R)-3-(5-chloro-1H-benzotriazol-1-yl)tetrahydro-2H-pyran-4-yl)-6-(5-(difluoromethyl)-1,3,4-oxadiazol-2-yl)isoindolin-1-one], the inhibition at 10 µM was 100%.

For the compound `O=C(NCC(F)(F)F)C1CC(F)(F)CCN1N1Cc2ccc(-c3nnc(C(F)F)o3)cc2C1=O` (centres unmarked) [Example 564, 1-(6-(5-(difluoromethyl)-1,3,4-oxadiazol-2-yl)-1-oxo-1,3-dihydro-2H-isoindol-2-yl)-4,4-difluoro-N-(2,2,2-trifluoroethyl)piperidine-2-carboxamide], the inhibition at 10 µM amounted to 100%.

Consider `O=C1c2cc(-c3nnc(C(F)F)o3)ccc2CN1N1CCC(F)(F)CC1c1ccc(F)cc1` (centres unmarked) [Example 566, 2-(4,4-difluoro-2-(4-fluorophenyl)piperidin-1-yl)-6-(5-(difluoromethyl)-1,3,4-oxadiazol-2-yl)isoindolin-1-one], for which the inhibition at 10 µM stood at 100%.
